Consider four molecules from patent publication US12168007B1, “Substituted piperazines as dopamine D3/D2 receptor modulators” (Richter Gedeon Nyrt, priority 2023, dated 2024).

Molecules are shown by their SMILES. ≈ marks a conversion by molar mass, not a printed value. Read-outs that look alike come from different tables or passages of the source.

The nature of one data set: Kinetic solubility study. Type of data set: physicochemical. Particulars: PBS pH 7.4 with 1% DMSO, aqueous buffer, kinetic from dmso stock; PBS pH = 7.4, 2 hours, RT, 1% DMSO co-solvent; read-out: Kinetic sol. As to the method: Following shaking of the suspension on an orbital shaker at 300 rpm for 2 hours, the suspension was clarified by vacuum filtration (Multiscreen® Vacuum Manifold; MilliporeSigma). Immediately following the filtration step, […] of the filtrate was transferred into […] of acetonitrile to avoid compound precipitation from the saturated solution. The concentration of the research compound was determined by HPLC-UV-(MS) detection, by using an external standard made from the same batch of research compound.

Data set [1] in a line: Thermodynamic solubility study (37° C., 4 hours). Type of data set: physicochemical. Particulars: fassgf or other biorelevant, thermodynamic from solid, SIF pH = 6.8, 4 hours, read-out: Thermodynamic sol. As to the method: Thermodynamic Solubility Study (37° C., 4 Hours)
The resulted mixtures/oversaturated solutions are shaken at 37° C. for 4 hrs (to the solution equilibrium) and are filtrated on a Millipore MultiSreen Filter Plate (0.45 μm). Concentrations of the filtrates are determined by LC/UV/MS based on a 5-point calibration. (When the solid material dissolved totally in the aqueous test medium the result should be considered as a minimal value.) Results are shown in Table 2.

The next data set concerns the target human 5-HT2A receptors (Homo sapiens (Human), UniProt P28223). Kind of data set: Antagonism at human 5-HT2A receptors, fluorometric Ca2+ detection. It is filed as cell-based. As to conditions: CHO-K1 cells with Gα16, against EC80 5-HT; read-out: 5-HT2A Ca2+ pIC50 (converted).
Data set [2] deals with phencyclidine-induced hypermotility. As to the kind of experiment: Phencyclidine-induced hypermotility in rats. As to conditions: Rattus norvegicus; male Harlan-Wistar rats, percent inhibition, linear regression; read-out: PCP (ED50 mg/kg). It is filed as in vivo.
Procedure: Phencyclidine-Induced Hypermotility in Rats
Spontaneous locomotor activity was measured using a six-channel activity monitor manufactured by Experimetria Ltd. (Budapest, HU). […] Additional arrays of photocells (30 pairs) were placed along opposite sides of the cage at different heights (6.5 cm, 12 cm, 18 cm and 23 cm) in order to detect rearing responses.
Test compounds were administered to study animals either orally or subcutaneously, with ten animals per treatment group. In these studies, male Harlan-Wistar rats (Toxi-Coop, Budapest, HU) weighing 190-210 grams were used. After oral administration of test compound or vehicle, animals were individually habituated to the activity monitors for 30 minutes. In the cases of subcutaneous administration of test compounds, rats were first habituated for 15 minutes to the activity monitors, then treated with the test compound or vehicle followed by replacing them into the activity monitors for an additional 15-minute period of habituation. […]
Data were analyzed using GraphPad® Prism® 9 software (GraphPad, San Diego, CA, USA). […] Drug effect was evaluated using Analysis of Variance (ANOVA, or Welch's ANOVA when appropriate) followed by Dunnett's multiple comparisons test. When appropriate, the ED50 value was determined from percent inhibition data from linear regression analysis.
In data set [3] the test system is apomorphine-induced climbing and sniffing. As to the kind of experiment: Apomorphine-induced climbing and sniffing in mice. Type of data set: in vivo. As to conditions: Mus musculus, sc, male CD1 mice, subcutaneous, 1.5 mg/kg apomorphine.
Procedure: Apomorphine-Induced Climbing and Sniffing in Mice
Male CD1® mice (Envigo, Horst, NL) weighing 24-29 g were used in the experiments (n=12 per treatment group). Climbing and sniffing behavior were measured by visual observation in cylindrical cages.
Immediately after the subcutaneous administration of the vehicle or the test compound, animals were placed into the cages for 10 minutes to habituate. […] After treatment, animals were replaced into the cylindrical cages. The measurement of climbing and sniffing behavior started 10 minutes after the apomorphine treatment (during the 11th minute) and lasted for 16 minutes. Every minute the climbing behavior was scored as follows: four paws on the floor (0 score); forefeet touching the bars (1 score); and four paws grasping the bars (2 score). Animals were also rated for repetitive sniffing as a measure of stereotypy according to the following scale: no sniffing (0 score), moderate sniffing, little snout contact with cage walls or floor (1 score); and constant sniffing, persistent snout contact (2 score).
Data were analyzed using GraphPad Prism 9 software (GraphPad). Scores for both behaviors were tallied for each individual (possible maximum score 32) and group means were calculated. Drug effect was calculated as percent inhibition of the apomorphine-induced behavior. […]
The target in data set [4] is T1, human D2L receptors (Homo sapiens (Human), UniProt P14416). As to the kind of experiment: Agonism of human D2L receptors, cAMP detection (HTRF) in CHO-K1 cells. It is filed as cell-based. As to conditions: inhibition of forskolin-stimulated cAMP accumulation, read-out: D2L cAMP pEC50 (converted). In general terms: In TR-FRET formats the signal depends on donor and acceptor labels being close together.
Target sequence in this assay (P14416 whole entry): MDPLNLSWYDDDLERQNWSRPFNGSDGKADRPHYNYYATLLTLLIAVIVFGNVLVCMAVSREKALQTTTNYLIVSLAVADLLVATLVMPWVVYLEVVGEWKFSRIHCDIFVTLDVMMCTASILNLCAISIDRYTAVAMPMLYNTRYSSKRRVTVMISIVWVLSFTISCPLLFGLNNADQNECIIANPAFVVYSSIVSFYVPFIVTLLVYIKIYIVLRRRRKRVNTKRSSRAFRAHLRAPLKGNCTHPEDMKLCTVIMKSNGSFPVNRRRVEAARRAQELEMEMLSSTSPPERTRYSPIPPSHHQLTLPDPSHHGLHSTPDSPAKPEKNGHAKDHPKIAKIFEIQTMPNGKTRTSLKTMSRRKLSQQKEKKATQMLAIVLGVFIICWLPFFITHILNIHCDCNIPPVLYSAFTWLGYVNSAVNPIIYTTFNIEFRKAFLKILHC
Procedure: Agonist activity at human D2L receptors was assayed by measuring cAMP levels in CHO-K1 cells expressing human D2L receptors (Eurofins DiscoverX, Fremont, CA, USA) by homogenous time-resolved fluorescence (HTRF®) using the cAMP Gi kit (Cisbio/PerkinElmer). CHO-K1 cells expressing human D2L receptors were cultured in Ham's F12 medium supplemented with 10% FBS, 1% penicillin-streptomycin antimycotic solution, and 800 μg/mL G418 (Thermo Fisher Scientific, Waltham, MA, USA) and maintained at 37° C. in a humidified atmosphere containing 5.0% CO2. […] Results were calculated from the ratio of acceptor fluorescence signal (A665 nm) and donor fluorescence signal (A620 nm)×10^4 and expressed as ΔF % values using the following formula: 100×(Ratio Sample-Ratio Negative Control)/Ratio Negative Control. In experiments, all treatments were measured in multiple wells in parallel, and the mean ΔF % values were used for further analysis. Agonist activity values were calculated as percentage of inhibition of forskolin-stimulated cAMP accumulation normalized to the response evoked by a maximally effective concentration of dopamine tested in the same experiment. […]

In data set [5] the target is T1, human D2L receptors. As to the kind of experiment: β-arrestin recruitment to human dopamine D2L receptors (PathHunter CHO-K1). As to conditions: β-arrestin-2 recruitment, CHO-K1 cells, normalized to 30 μM dopamine; read-out: D2L arrestin pEC50 (converted). Type of data set: cell-based.
Target sequence in this assay (P14416 whole entry, looked up): as the sequence (P14416 whole entry) above
Target sequence in this assay (P32121 whole entry partner, looked up): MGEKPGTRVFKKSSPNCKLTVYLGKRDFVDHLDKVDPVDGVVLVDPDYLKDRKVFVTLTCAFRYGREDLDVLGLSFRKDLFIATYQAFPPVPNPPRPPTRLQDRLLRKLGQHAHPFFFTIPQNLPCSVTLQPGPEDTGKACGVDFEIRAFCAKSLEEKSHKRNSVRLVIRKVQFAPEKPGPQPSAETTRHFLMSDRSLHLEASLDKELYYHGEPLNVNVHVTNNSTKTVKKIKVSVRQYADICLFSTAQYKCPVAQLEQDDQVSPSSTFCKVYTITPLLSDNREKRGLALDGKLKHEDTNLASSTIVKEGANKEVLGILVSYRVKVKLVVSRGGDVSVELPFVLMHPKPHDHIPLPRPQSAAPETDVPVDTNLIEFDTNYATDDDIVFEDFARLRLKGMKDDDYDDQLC
Procedure: Measurement of β-Arrestin Recruitment to Human Dopamine D2L Receptors
PathHunter® CHO-K1 cells expressing tagged human D2L receptors and tagged β-arrestin-2 (Eurofins DiscoverX, Fremont, CA, USA) were seeded into 96-well white-walled clear bottom tissue culture plates in 90 μL/cell AssayComplete™ Cell Plating 2 (CP2) reagent (Eurofins DiscoverX) at a density of 20,000 cells/well. The plates were incubated overnight in a humidified atmosphere with 5% CO2 at 37° C. Twenty to twenty-four hours later, 20 μL of test compound or vehicle in CP2 reagent and containing 2.2% DMSO was added to the cells, and they were incubated for 90 minutes at 37° C. Then, 55 μL PathHunter® Detection Reagent (Eurofins DiscoverX) was added per well and plates were incubated for 60 minutes at 25° C., followed by luminescence detection using a PHERAstar® FS multimode plate reader (BMG Labtech, Ortenberg, Germany). Raw data were converted to percent stimulation above basal values. Values were further converted to percent of maximal stimulation of β-arrestin recruitment by 30 μM dopamine. EC50 values were calculated from concentration-response curves of at least six concentrations run in duplicates by sigmoidal fitting using Origin® 7.5 software (OriginLab Corporation, Northampton, MA, USA) and were defined as the concentration of the agonist with half-maximal stimulation.
Data set [6] deals with T2, human D3 receptors (Homo sapiens (Human), UniProt P35462). As to the kind of experiment: Agonism at human D3 receptors, cAMP detection (HTRF) in HEK293 cells. Type of data set: cell-based. Particulars: inhibition of forskolin-stimulated cAMP accumulation, HEK293 cells co-expressing adenylyl cyclase V; read-out: D3 cAMP pEC50 (converted).
Target sequence in this assay (P35462 whole entry): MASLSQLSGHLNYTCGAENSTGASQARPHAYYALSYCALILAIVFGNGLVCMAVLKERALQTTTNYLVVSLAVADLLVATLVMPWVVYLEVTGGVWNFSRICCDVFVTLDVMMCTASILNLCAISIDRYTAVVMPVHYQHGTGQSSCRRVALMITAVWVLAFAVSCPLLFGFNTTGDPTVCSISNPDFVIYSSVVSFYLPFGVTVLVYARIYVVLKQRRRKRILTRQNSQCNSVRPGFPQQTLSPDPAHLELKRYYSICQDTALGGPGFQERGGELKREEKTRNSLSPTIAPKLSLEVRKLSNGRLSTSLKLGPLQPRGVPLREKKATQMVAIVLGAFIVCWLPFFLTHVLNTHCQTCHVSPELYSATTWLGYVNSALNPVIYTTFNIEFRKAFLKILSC
Procedure: Characterization of Agonism at Human D3 Receptors Using Cyclic Adenosine Monophosphate Detection
Agonist activity at human D3 receptors was assayed by cAMP levels in HEK293 cells expressing recombinant human D3 receptors (BioXtal, Saint-Félix, France) stably co-expressing adenylyl cyclase V (ACV) (cell line developed by Gedeon Richter) by homogenous time-resolved fluorescence (HTRF) using the cAMP Gi kit (Cisbio/PerkinElmer). HEK293 cells expressing recombinant human D3 receptors and ACV were cultured in DMEM supplemented with 10% FBS, 1% penicillin-streptomycin antimycotic solution, 1% pyruvate, 100 μg/mL G418 (Thermo Fisher Scientific) and 60 μg/mL hygromycin B and maintained at 37° C. in a humidified atmosphere containing 5% CO2. […]
Results were calculated from the ratio of acceptor fluorescence signal (A665 nm) and donor fluorescence signal (A620 nm)×10^4 and expressed as ΔF % values using the following formula: 100× (ratio sample-ratio negative control)/ratio negative control. In all experiments multiple wells were measured in parallel, and the mean ΔF % values were used for further analysis. Agonist activity values were calculated as percentage of inhibition of forskolin-stimulated cAMP accumulation normalized to the response evoked by a maximally effective concentration of dopamine tested in the same experiment. […]
Data set [7] addresses T2, human D3 receptors. As to the kind of experiment: β-arrestin recruitment to human dopamine D3 receptors (PathHunter CHO-K1). It is filed as cell-based.
Target sequence in this assay (P35462 whole entry, looked up): as the sequence (P35462 whole entry) above
Target sequence in this assay (P32121 whole entry partner, looked up): as the sequence (P32121 whole entry partner, looked up) above
Procedure: Measurement of β-Arrestin Recruitment to Human Dopamine D3 Receptors
PathHunter® CHO-K1 cells expressing tagged human D3 receptors and tagged β-arrestin-2 (Eurofins DiscoverX, Fremont, CA, USA) were seeded into 96-well white-walled clear bottom tissue culture plates in 90 μL AssayComplete™ Cell Plating 2 (CP2) reagent (Eurofins DiscoverX) at a density of 25,000 cells/well and incubated overnight in humidified atmosphere with 5% CO2 at 37° C. Twenty to twenty-four hours later, 20 μL of test compounds or vehicle in CP2 reagent containing 2.2% DMSO was added to the cells and the cells were incubated for 90 minutes at 37° C. Following incubation, 55 μL PathHunter® Detection Reagent (Eurofins DiscoverX) was added per well and the plates were incubated for 60 minutes at 25° C. followed by luminescence detection using a PHERAstar® FS multimode plate reader (BMG Labtech, Ortenberg, Germany).
Raw data were first converted to stimulation % above basal values. The stimulation % above basal values were further converted to % of maximal stimulation of β-arrestin recruitment by 1 μM dopamine. EC50 values were calculated from concentration-response curves of at least six concentrations in duplicates by sigmoidal fitting using Origin® 7.5 software (OriginLab© Corporation, Northampton, MA, USA) and were defined as the concentration of the agonist with half-maximal stimulation.

Chain of human 5-HT2A receptors (P28223 whole entry): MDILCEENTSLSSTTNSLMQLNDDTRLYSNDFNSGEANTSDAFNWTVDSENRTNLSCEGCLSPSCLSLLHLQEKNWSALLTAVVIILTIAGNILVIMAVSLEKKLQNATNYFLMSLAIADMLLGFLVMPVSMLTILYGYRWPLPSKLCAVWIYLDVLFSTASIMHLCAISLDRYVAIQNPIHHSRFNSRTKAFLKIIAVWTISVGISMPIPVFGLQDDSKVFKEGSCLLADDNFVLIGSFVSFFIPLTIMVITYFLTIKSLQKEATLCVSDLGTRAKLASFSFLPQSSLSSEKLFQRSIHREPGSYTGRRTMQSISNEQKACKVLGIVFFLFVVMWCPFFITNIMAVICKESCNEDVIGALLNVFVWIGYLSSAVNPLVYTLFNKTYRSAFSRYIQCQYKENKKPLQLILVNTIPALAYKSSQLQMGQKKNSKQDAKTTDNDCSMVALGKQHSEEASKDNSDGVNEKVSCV
Source text for human 5-HT2A receptors: Characterization of Antagonism at Human 5-HT2A Receptors using Fluorometric Ca^2+ Detection
CHO-K1 cells expressing human recombinant 5-HT2A receptors and Gα16 (purchased from Euroscreen Fast, Brussels, BE) in culture were cryopreserved according to established protocols, using 90% FBS/10% DMSO as medium. Prior to the experiment, cells were thawed, resuspended in PowerCHO™ 2 medium (Lonza, Basel, Switzerland) supplemented with 10% fetal bovine serum (FBS), 1% penicillin-streptomycin antimycotic solution, and 1% pyruvate. Cells were seeded in 96-well microplates at a density of 40,000 cells/well and incubated overnight at 37° C. in a humidified atmosphere containing 5.0% CO2. […]
Baseline and agonist-evoked [Ca^2+]i (intracellular Ca^2+) changes were monitored with a FlexStation® II 96 well plate reader (Molecular Devices, San Jose, CA, USA). […] Baseline was recorded for 20 seconds followed by agonist stimulation, when 50 μL 3× concentrated agonist (5-HT at its EC80) solution or assay buffer/vehicle was added to all wells at 75 μL/second using the onboard pipettor, at a height corresponding to 155 μL. Fluorescence was monitored for an additional 20 seconds.
Compounds were evaluated against an EC80 5-HT concentration, as determined on each plate with the built-in curve fitting module of the measurement software (SoftMax® Pro 5.2, Molecular Devices, San Jose, CA, USA). […]

With `CCOCN(C)C(=O)N[C@H]1CC[C@H](CCN2CCN(c3cccc(Cl)c3Cl)CC2)CC1` [Example 1, N′-[(1r,4r)-4-{2-[4-(2,3-dichlorophenyl)piperazin-1-yl]ethyl}cyclohexyl]-N-(ethoxymethyl)-N-methylurea], the solubility kinetic at 2 h in the data set “Kinetic solubility study” was found to be 72.7 ± 3.4 µM (≈ 34.3 µg/mL). Further, the solubility thermodynamic at 4 h in data set [1] came out at 53.5 ± 0.9 µM (≈ 25.2 µg/mL). For the same molecule, at human 5-HT2A receptors, the IC50 was 158 nM. Further, the ED50 turned out to be 0.07 mg/kg in data set [2]; 0.1 mg/kg in data set [3] (apomorphine-induced climbing, read-out: APO (ED50 cl mg/kg)); 0.4 mg/kg in data set [3] (apomorphine-induced sniffing, read-out: APO (ED50 sn mg/kg)).

In the case of `COCN(C)C(=O)N[C@H]1CC[C@H](CCN2CCN(c3cccc(Cl)c3Cl)CC2)CC1` [Example 2, N′-[(1r,4r)-4-{2-[4-(2,3-dichlorophenyl)piperazin-1-yl]ethyl}cyclohexyl]-N-(methoxymethyl)-N-methylurea], the solubility kinetic at 2 h in “Kinetic solubility study” stood at 47.7 ± 4.5 µM (≈ 21.8 µg/mL). Besides, the solubility thermodynamic at 4 h in data set [1] stood at 147 ± 8.72 µM (≈ 67.3 µg/mL). For the same molecule, the EC50 at human D2L receptors [4] is 1.32 nM; on human D2L receptors [5] it was 0.724 nM; at human D3 receptors [6] it was 1.95 nM; on human D3 receptors [7], 3.89 nM. Moreover, at human 5-HT2A receptors, the IC50 is 132 nM.

Turning to `CCCOCN(C)C(=O)N[C@H]1CC[C@H](CCN2CCN(c3cccc(Cl)c3Cl)CC2)CC1` [Example 3, N′-[(1r,4r)-4-{2-[4-(2,3-dichlorophenyl)piperazin-1-yl]ethyl}cyclohexyl]-N-methyl-N-(propoxymethyl)urea], the solubility kinetic at 2 h in “Kinetic solubility study” turned out to be 32.4 ± 3.2 µM (≈ 15.7 µg/mL). Moreover, the solubility thermodynamic at 4 h in data set [1] came to 32.7 ± 1.65 µM (≈ 15.9 µg/mL).

Consider `CCCN(C)C(=O)N[C@H]1CC[C@H](CCN2CCN(c3cccc(Cl)c3Cl)CC2)CC1` [Ref. Ex. 1, N′-[(1r,4r)-4-{2-[4-(2,3-dichlorophenyl)piperazin-1-yl]ethyl}cyclohexyl]-N-methyl-N-propylurea, reference compound], for which, in the data set “Kinetic solubility study”, the solubility kinetic at 2 h came out at 10.9 ± 1.7 µM (≈ 4.96 µg/mL). For the same molecule, the solubility thermodynamic at 4 h in data set [1] is 27.7 ± 1.1 µM (≈ 12.6 µg/mL).
